Experimental data published in ChEMBL document CHEMBL3792297, “Studies on phenothiazines: New microtubule-interacting compounds with phenothiazine A-ring as potent antineoplastic agents” (Bioorg Med Chem, 2016).

Columns and labels:
Format in all cases: functional
[1] = Growth inhibition of human Hs 578T cells after 48 hrs by SRB assay
[2] = Growth inhibition of human OVCAR3 cells after 48 hrs by SRB assay; conditions: OVCAR-3, 48 h
SK-MEL-28 = assay: Growth inhibition of human SK-MEL-28 cells after 48 hrs by SRB assay; conditions: SK-MEL-28, 48 h
[3] = Growth inhibition of human COLO205 cells after 48 hrs by SRB assay; conditions: COLO 205, 48 h
MCF7 = assay: Growth inhibition of human MCF7 cells after 48 hrs by SRB assay; conditions: MCF7, 48 h
[4] = Growth inhibition of human PC3 cells after 48 hrs by SRB assay; conditions: PC-3, 48 h
[5] = Growth inhibition of human RPMI8226 cells after 48 hrs by SRB assay; conditions: RPMI-8226, 48 h
[6] = Growth inhibition of human MOLT4 cells after 48 hrs by SRB assay; conditions: MOLT-4, 48 h
SK-MEL-5 = assay: Growth inhibition of human SK-MEL-5 cells after 48 hrs by SRB assay; conditions: SK-MEL-5, 48 h
MDA-MB-468 = assay: Growth inhibition of human MDA-MB-468 cells after 48 hrs by SRB assay; conditions: MDA-MB-468, 48 h
[7] = Growth inhibition of human SF268 cells after 48 hrs by SRB assay; conditions: SF-268, 48 h
[8] = Growth inhibition of human OVCAR8 cells after 48 hrs by SRB assay; conditions: OVCAR-8, 48 h
SK-MEL-2 = assay: Growth inhibition of human SK-MEL-2 cells after 48 hrs by SRB assay; conditions: SK-MEL-2, 48 h
[9] = Growth inhibition of human Caki1 cells after 48 hrs by SRB assay; conditions: CAKI-1, 48 h
[10] = Growth inhibition of human SW620 cells after 48 hrs by SRB assay; conditions: SW-620, 48 h
K562 = assay: Growth inhibition of human K562 cells after 48 hrs by SRB assay; conditions: K562, 48 h
NCI-H460 = assay: Growth inhibition of human NCI-H460 cells after 48 hrs by SRB assay; conditions: NCI-H460, 48 h
[11] = Growth inhibition of human DU145 cells after 48 hrs by SRB assay; conditions: DU-145, 48 h
[12] = Growth inhibition of human SF539 cells after 48 hrs by SRB assay; conditions: SF-539, 48 h
[13] = Growth inhibition of human BT549 cells after 48 hrs by SRB assay; conditions: BT-549, 48 h
MDA-MB-435 = assay: Growth inhibition of human MDA-MB-435 cells after 48 hrs by SRB assay; conditions: MDA-MB-435, 48 h
[14] = Growth inhibition of human RXF393 cells after 48 hrs by SRB assay; conditions: RXF 393, 48 h
[15] = Growth inhibition of human OVCAR4 cells after 48 hrs by SRB assay; conditions: OVCAR-4, 48 h
[16] = Growth inhibition of human UO31 cells after 48 hrs by SRB assay; conditions: UO-31, 48 h
A549 = assay: Growth inhibition of human A549 cells after 48 hrs by SRB assay; conditions: A549, 48 h
[17] = Growth inhibition of human IGROV1 cells after 48 hrs by SRB assay; conditions: IGROV-1, 48 h

Row | SMILES | GI50 [1] | GI50 [2] | GI50 (SK-MEL-28) | GI50 [3] | GI50 (MCF7) | GI50 [5] | GI50 [6] | GI50 (SK-MEL-5) | GI50 (MDA-MB-468) | GI50 [7] | GI50 [8] | GI50 (SK-MEL-2) | GI50 [9] | GI50 [10] | GI50 (K562) | GI50 (NCI-H460) | GI50 [11] | GI50 [12] | GI50 [13] | GI50 (MDA-MB-435) | also measured
1 | COc1ccc(C(=O)N2c3ccccc3Sc3ccccc32)c(C(F)(F)F)c1 | 472 nM | 332 nM | 9170 nM | 319 nM | 411 nM | 595 nM | 406 nM | 692 nM | 364 nM | 3040 nM | 592 nM | 677 nM | 692 nM | 425 nM | 349 nM | 383 nM | 433 nM | 270 nM | 892 nM | 176 nM | GI50 [4]: 426 nM; GI50 [14]: 362 nM; GI50 [15]: 1980 nM; GI50 [16]: 2620 nM; GI50 (A549): 515 nM; GI50 [17]: 2200 nM
2 | COc1ccc(C(=O)N2c3ccccc3Sc3ccccc32)c(F)c1 | 377 nM | 418 nM | 1640 nM | 445 nM | 405 nM | 921 nM | 715 nM | 759 nM | 413 nM | 10100 nM | 2200 nM | 531 nM | 584 nM | 458 nM | 442 nM | 485 nM | 1400 nM | 409 nM | 676 nM | 177 nM | GI50 [4]: 407 nM; GI50 [14]: 764 nM; GI50 [15]: 2010 nM; GI50 [16]: 3780 nM; GI50 (A549): 1190 nM; GI50 [17]: 807 nM
3 | COc1ccc(C(=O)N2c3ccccc3Sc3ccccc32)cc1F | 193 nM | 249 nM | 320 nM | 236 nM | 346 nM | 336 nM | 323 nM | 443 nM | 231 nM | 799 nM | 420 nM | 352 nM | 465 nM | 282 nM | 110 nM | 340 nM | 3610 nM | 218 nM | 439 nM | 36 nM | GI50 [14]: 211 nM; GI50 [15]: 1450 nM; GI50 [16]: 725 nM; GI50 (A549): 344 nM; GI50 [17]: 566 nM
4 | O=C(c1ccc2c(c1)Sc1ccccc1N2)c1c[nH]c2ccccc12 | 239 nM | 360 nM | 630 nM | 285 nM | 312 nM | 428 nM | 642 nM | 452 nM | 301 nM | 798 nM | 556 nM | 309 nM | 359 nM | 293 nM | 310 nM | 347 nM | 679 nM | 258 nM | 366 nM | 98 nM | GI50 [4]: 544 nM; GI50 [14]: 510 nM; GI50 [15]: 4110 nM; GI50 [16]: 510 nM; GI50 (A549): 592 nM; GI50 [17]: 683 nM
5 | COc1ccc(C(=O)N2c3ccccc3Sc3ccccc32)c(OC)c1 | 482 nM | 322 nM | 942 nM | 333 nM | 450 nM | 523 nM | 447 nM | 408 nM | 327 nM | 853 nM | 749 nM | 585 nM | 574 nM | 412 nM | 381 nM | 406 nM | 491 nM | 333 nM | 659 nM | 212 nM | GI50 [4]: 430 nM; GI50 [14]: 413 nM; GI50 [15]: 3170 nM; GI50 [16]: 739 nM; GI50 (A549): 785 nM; GI50 [17]: 926 nM
